Data as given in US20230111310A1, “CARBOXYLIC ACID DERIVATIVE-SUBSTITUTED IMINO ARYL COMPOUND, PREPARATION METHOD THEREFOR, HERBICIDAL COMPOSITION AND USE THEREOF” (Qingdao Kingagroot Chemical Compound Co., Ltd., priority 2020, published 2023).

Key:
Experiment in all cases: Weeding effect in post-emergence stage
Assay type in all cases: in vivo
Echinochloa crusgalli = details: for Weeding effect in post-emergence stage, Echinochloa crusgalli: level of fresh weight growth control rate; for Weeding effect in post-emergence stage, Echinochloa crusgalli (level): fresh weight control rate level
Description: (§1) The activity level criteria for plant damage (i.e., growth control rate) are as follows:
(§2) Monocotyledonous and dicotyledonous weed seeds (Descurainia sophia, Capsella bursa-pastoris, Abutilon theophrasti, Galium aparine, Stellaria media, Lithospermum arvense, rorippa indica, Alopecurus aequalis, Alopecurus japonicus, Eleusine indica, Beckmannia syzigachne, Sclerochloa dura, Conyza Canadensis, Phleum paniculatum, Veronica didyma Tenore, Bromus japonicus, Aegilops tauschii, Phalaris arundinacea, Amaranthus retroflexus, Chenopodiaceae, Commelina communis, Sonchus arvensis, Convolvulus arvensis, Cirsium setosum, Bidens tripartita L., Solanum nigrum, Acalypha australis, Digitaria sanguinalis, Echinochloa crusgalli, Setaria viridis, Setaria glauca, Leptochloa chinensis, Monochoria vaginalis, Sagittaria trifolia, Scirpus juncoides, Cyperus rotundus, Cyperus iria, Cyperus difformis, Fimbristylis, Portulaca oleracea, Xanthium sibiricum, Pharbitis nil, etc.) and major crop seeds (wheat, corn, rice, soybean, cotton, oilseed rape, millet, sorghum, potato, sesame, ricinus, etc.) were placed in plastic pots filled with soil, then covered with 0.5-2 cm of soil, allowed to grow in a good greenhouse environment. After 2 weeks of sowing, the test plants were treated in the 2-3 leaf stage. The tested compounds of the present invention were respectively dissolved in acetone, then added with Tween 80 and 1.5 liter/ha of emulsifiable concentrate of methyl oleate as synergist, diluted with a certain amount of water to obtain a solution with a certain concentration, and sprayed with a spray tower onto the plants. After the application, the plants were cultured for 3 weeks in the greenhouse, and then the experimental results of the weeding were counted. The doses of the used compounds were 500, 250, 125, 60, 30, 15, 7.5 g/ha, and the averages were obtained by repeating for three times.

Abutilon theophrasti = details: for Weeding effect in post-emergence stage, Abutilon theophrasti: level of fresh weight growth control rate; for Weeding effect in post-emergence stage, Abutilon theophrasti (level): fresh weight control rate level
Description: as §1
as §2, with “The doses of the used compounds were 500, 250, 125, 60, 30, 15, 7.5 g/ha, and the averages were obtained by repeating for three times.” left out

Digitaria sanguinalis = details: for Weeding effect in post-emergence stage, Digitaria sanguinalis: level of fresh weight growth control rate; for Weeding effect in post-emergence stage, Digitaria sanguinalis (level): fresh weight control rate level
Description: as §1
as §2, with “The doses of the used compounds were 500, 250, 125, 60, 30, 15, 7.5 g/ha, and the averages were obtained by repeating for three times.” left out

Alopecurus japonicus = details: for Weeding effect in post-emergence stage, Alopecurus japonicus: level of fresh weight growth control rate; for Weeding effect in post-emergence stage, Alopecurus japonicus (level): fresh weight control rate level
Description: as §1
as §2, with “The doses of the used compounds were 500, 250, 125, 60, 30, 15, 7.5 g/ha, and the averages were obtained by repeating for three times.” left out

Eleusine indica = details: for Weeding effect in post-emergence stage, Eleusine indica: level of fresh weight growth control rate; for Weeding effect in post-emergence stage, Eleusine indica (level): fresh weight control rate level
Description: as §1
as §2, with “The doses of the used compounds were 500, 250, 125, 60, 30, 15, 7.5 g/ha, and the averages were obtained by repeating for three times.” left out

Setaria viridis = details: for Weeding effect in post-emergence stage, Setaria viridis: level of fresh weight growth control rate; for Weeding effect in post-emergence stage, Setaria viridis (level): fresh weight control rate level
Description: as §1
as §2, with “The doses of the used compounds were 500, 250, 125, 60, 30, 15, 7.5 g/ha, and the averages were obtained by repeating for three times.” left out

Row | Compound | Weeding effect in post-emergence stage, Echinochloa crusgalli (Echinochloa crusgalli; Dose 15 g/ha) | Weeding effect in post-emergence stage, Abutilon theophrasti (Abutilon theophrasti; Dose 15 g/ha) | Weeding effect in post-emergence stage, Digitaria sanguinalis (Digitaria sanguinalis; Dose 15 g/ha) | Weeding effect in post-emergence stage, Alopecurus japonicus (Alopecurus japonicus; Dose 15 g/ha) | Weeding effect in post-emergence stage, Eleusine indica (Eleusine indica; Dose 15 g/ha) | Weeding effect in post-emergence stage, Setaria viridis (Setaria viridis; Dose 15 g/ha) | further results
1 | COC(=O)CCOC(=O)[C@@H](C)O/N=C/c1cc(-n2c(=O)cc(C(F)(F)F)n(C)c2=O)c(F)cc1Cl [240(R)] | – | – | – | – | – | – | Weeding effect in post-emergence stage, Echinochloa crusgalli (Echinochloa crusgalli; Dose 30 g/ha): 5 (Level 5: growth control rate is above 85%); Weeding effect in post-emergence stage, Abutilon theophrasti (Abutilon theophrasti; Dose 30 g/ha): 5 (Level 5: growth control rate is above 85%); Weeding effect in post-emergence stage, Digitaria sanguinalis (Digitaria sanguinalis; Dose 30 g/ha): 5 (Level 5: growth control rate is above 85%); Weeding effect in post-emergence stage, Alopecurus japonicus (Alopecurus japonicus; Dose 30 g/ha): 5 (Level 5: growth control rate is above 85%); Weeding effect in post-emergence stage, Eleusine indica (Eleusine indica; Dose 30 g/ha): 5 (Level 5: growth control rate is above 85%); Weeding effect in post-emergence stage, Setaria viridis (Setaria viridis; Dose 30 g/ha): 5 (Level 5: growth control rate is above 85%)
2 | CCCCCOC(=O)[C@@H](C)O/N=C/c1cc(-n2c(=O)cc(C(F)(F)F)n(C)c2=O)c(F)cc1Cl [203(R)] | 5 (Level 5: growth control rate is above 85%) | 5 (Level 5: growth control rate is above 85%) | 5 (Level 5: growth control rate is above 85%) | 5 (Level 5: growth control rate is above 85%) | 5 (Level 5: growth control rate is above 85%) | 5 (Level 5: growth control rate is above 85%) | –
3 | CO/N=C/c1cc(-n2c(=O)n(C)c(=S)n(C)c2=O)c(F)cc1Cl [Control compound A, reference compound] | – | – | – | – | – | – | Weeding effect in post-emergence stage, Echinochloa crusgalli (level) (Echinochloa crusgalli; Dose 15 g/ha): 0 (Level 0: growth control rate is less than 5%); Weeding effect in post-emergence stage, Abutilon theophrasti (level) (Abutilon theophrasti; Dose 15 g/ha): 3 (Level 3: growth control rate is greater than or equal to 40% and less than 60%); Weeding effect in post-emergence stage, Digitaria sanguinalis (level) (Digitaria sanguinalis; Dose 15 g/ha): 1 (Level 1: growth control rate is greater than or equal to 5% and less than 20%); Weeding effect in post-emergence stage, Alopecurus japonicus (level) (Alopecurus japonicus; Dose 15 g/ha): 0 (Level 0: growth control rate is less than 5%); Weeding effect in post-emergence stage, Eleusine indica (level) (Eleusine indica; Dose 15 g/ha): 1 (Level 1: growth control rate is greater than or equal to 5% and less than 20%); Weeding effect in post-emergence stage, Setaria viridis (level) (Setaria viridis; Dose 15 g/ha): 1 (Level 1: growth control rate is greater than or equal to 5% and less than 20%)
4 | COC(=O)[C@@H](C)O/N=C/c1cc(-n2c(=S)cc(C(F)(F)F)n(C)c2=S)c(F)cc1C(F)(F)F [392(R)] | – | – | – | – | – | – | Weeding effect in post-emergence stage, Echinochloa crusgalli (level) (Echinochloa crusgalli; Dose 60 g/ha): 5 (Level 5: growth control rate is above 85%); Weeding effect in post-emergence stage, Abutilon theophrasti (level) (Abutilon theophrasti; Dose 60 g/ha): 5 (Level 5: growth control rate is above 85%); Weeding effect in post-emergence stage, Digitaria sanguinalis (level) (Digitaria sanguinalis; Dose 60 g/ha): 5 (Level 5: growth control rate is above 85%); Weeding effect in post-emergence stage, Alopecurus japonicus (level) (Alopecurus japonicus; Dose 60 g/ha): 5 (Level 5: growth control rate is above 85%); Weeding effect in post-emergence stage, Eleusine indica (level) (Eleusine indica; Dose 60 g/ha): 5 (Level 5: growth control rate is above 85%); Weeding effect in post-emergence stage, Setaria viridis (level) (Setaria viridis; Dose 60 g/ha): 5 (Level 5: growth control rate is above 85%)
5 | COC(=O)C(C)O/N=C/c1cc(-n2c(=S)cc(C(F)(F)F)n(C)c2=O)c(F)cc1Cl (racemic) [Compound 349] | 5 (Level 5: growth control rate is above 85%) | 5 (Level 5: growth control rate is above 85%) | 5 (Level 5: growth control rate is above 85%) | 5 (Level 5: growth control rate is above 85%) | 5 (Level 5: growth control rate is above 85%) | 5 (Level 5: growth control rate is above 85%) | –
6 | C/C(=N\OC(=O)[C@@H](C)O/N=C/c1cc(-n2c(=O)cc(C(F)(F)F)n(C)c2=O)c(F)cc1Cl)C(C)(C)C [449(R)] | – | – | – | – | – | – | Weeding effect in post-emergence stage, Echinochloa crusgalli (level) (Echinochloa crusgalli; Dose 15 g/ha): 5 (Level 5: growth control rate is above 85%); Weeding effect in post-emergence stage, Abutilon theophrasti (level) (Abutilon theophrasti; Dose 15 g/ha): 5 (Level 5: growth control rate is above 85%); Weeding effect in post-emergence stage, Digitaria sanguinalis (level) (Digitaria sanguinalis; Dose 15 g/ha): 5 (Level 5: growth control rate is above 85%); Weeding effect in post-emergence stage, Alopecurus japonicus (level) (Alopecurus japonicus; Dose 15 g/ha): 5 (Level 5: growth control rate is above 85%); Weeding effect in post-emergence stage, Eleusine indica (level) (Eleusine indica; Dose 15 g/ha): 5 (Level 5: growth control rate is above 85%); Weeding effect in post-emergence stage, Setaria viridis (level) (Setaria viridis; Dose 15 g/ha): 5 (Level 5: growth control rate is above 85%)
7 | COCCOC(=O)C(C)O/N=C/c1cc(-n2c(=O)n(C)c(=S)n(C)c2=O)c(F)cc1Cl (racemic) [Compound 14] | 5 (Level 5: growth control rate is above 85%) | 5 (Level 5: growth control rate is above 85%) | 5 (Level 5: growth control rate is above 85%) | 4 (Level 4: growth control rate is greater than or equal to 60% and less than 85%) | 5 (Level 5: growth control rate is above 85%) | 5 (Level 5: growth control rate is above 85%) | –
8 | CCC(CC)=NOC(=O)[C@@H](C)O/N=C/c1cc(-n2c(=O)cc(C(F)(F)F)n(C)c2=O)c(F)cc1Cl [251(R)] | 5 (Level 5: growth control rate is above 85%) | 5 (Level 5: growth control rate is above 85%) | 5 (Level 5: growth control rate is above 85%) | 5 (Level 5: growth control rate is above 85%) | 5 (Level 5: growth control rate is above 85%) | 5 (Level 5: growth control rate is above 85%) | –
9 | C[C@@H](O/N=C/c1cc(-n2c(=O)cc(C(F)(F)F)n(C)c2=O)c(F)cc1Cl)C(=O)OCc1cccnc1 [302(R)] | 5 (Level 5: growth control rate is above 85%) | 5 (Level 5: growth control rate is above 85%) | 5 (Level 5: growth control rate is above 85%) | 5 (Level 5: growth control rate is above 85%) | 5 (Level 5: growth control rate is above 85%) | 5 (Level 5: growth control rate is above 85%) | –
10 | COC(=O)[C@@H](C)O/N=C/c1cc(-n2c(=O)n(C)c(=S)n(C)c2=O)c(F)cc1Br [83(R)] | 5 (Level 5: growth control rate is above 85%) | 5 (Level 5: growth control rate is above 85%) | 4 (Level 4: growth control rate is greater than or equal to 60% and less than 85%) | 4 (Level 4: growth control rate is greater than or equal to 60% and less than 85%) | 5 (Level 5: growth control rate is above 85%) | 5 (Level 5: growth control rate is above 85%) | –
11 | CCCCCCOC(=O)C(C)O/N=C/c1cc(-n2c(=O)cc(C(F)(F)F)n(C)c2=O)c(F)cc1Cl (racemic) [Compound 204] | 5 (Level 5: growth control rate is above 85%) | 5 (Level 5: growth control rate is above 85%) | 5 (Level 5: growth control rate is above 85%) | 5 (Level 5: growth control rate is above 85%) | 5 (Level 5: growth control rate is above 85%) | 5 (Level 5: growth control rate is above 85%) | –
